Measured values reported in patent US11369662B2 (The Medical College of Wisconsin, Inc., priority 2014, dated 2022).
Marks after values point to notes of the source that are not given here. Non-standard residues stand in square brackets, D forms with d. Residues, ends and D or L forms follow the SMILES beside them. sY = N[C@@H](Cc1ccc(OS(=O)(=O)O)cc1)C(=O)O

Columns and labels:
CXCL12WT [1] = target: T1, CXCL12WT (Homo sapiens, UniProt P48061); experiment: 2D NMR (1H-15N HSQC) titration of CXCR4 peptides into CXCL12WT; format: binding; conditions: for ΔG: ΔG = −RT ln Kd @ 298 K
T1 construct: made in house
Description: (§1) NMR spectroscopy. All NMR spectra were acquired on a Bruker DRX 600 MHz spectrometer equipped with a ^1H, ^15N, ^13C TXI cryoprobe at 298 K. Experiments were performed with either 50 μM [U-^15N]-CXCL12WT, -CXCL121, or -CXCL122 proteins in a solution containing 25 mM deuterated MES (pH 6.8), 10% (v/v) D2O, and 0.02% (w/v) NaN3. Full-length CXCR41-38 peptide titrations required 20 μM [U-^15N]-CXCL121 and -CXCL122 protein samples. Sulfated CXCR4 peptides were reconstituted at 100 mM in 25 mM deuterated MES, 10% (v/v) D2O, and 0.02% (w/v) NaN3 buffer. Unsulfated CXCR4 peptides were similarly reconstituted to 15 mM. Two separate 4ISIYTSD10 (SEQ ID NO:8) peptide samples were reconstituted at 10 mM and 15 mM peptide in 25 mM deuterated MES, 10% (v/v) D20, 0.02% (w/v) NaN3 buffer, from lyophilized powder.
(§2) Total peptide additions differed for individual peptide titrations but ranged from 0-160 equivalencies. Spectra were processed using in-house scripts and chemical shift tracking was performed using CARA software. Combined ^1H/^15N chemical shift perturbations were calculated as ((5 ΔδH)^2+(ΔδNH)^2)^0.5, where δH and δNH are the amide proton and nitrogen chemical shifts, respectively. Equilibrium dissociation constants (Kd) were determined by non-linear fitting of the combined ^1H/^15NH chemical shift perturbations as a function of peptide concentration to a single-site quadratic equation. For a given interaction, residues with the largest chemical shift perturbations were fitted individually. The resulting Kd values and their respective fitting errors were then averaged to produce the reported affinity and standard deviation for that interaction.

CXCL121 = target: T2, CXCL121 (Homo sapiens, UniProt P48061, I79C/L76C); experiment: 2D NMR (1H-15N HSQC) titration of CXCR4 peptides into CXCL121; format: binding; conditions: for ΔG: ΔG = −RT ln Kd @ 298 K
T2 construct: made in house
Description: as §1, §2

CXCL122 = target: T3, CXCL122 (Homo sapiens, UniProt P48061, A86C/L57C); experiment: 2D NMR (1H-15N HSQC) titration of CXCR4 peptides into CXCL122; format: binding; conditions: for ΔG: ΔG = −RT ln Kd @ 298 K
T3 construct: made in house
Description: as §1, §2

CXCL12WT dimerization = target: T4, CXCL12WT dimerization (Homo sapiens, UniProt P48061); experiment: Intrinsic tryptophan fluorescence polarization assay of CXCL12WT dimerization; format: binding; conditions: for coupling energy linking CXCL12 dimerization to sTyr21 pocket binding: thermodynamic cycle
T4 construct: made in house
Description: Fluorescence polarization assay. Fluorescence polarization (FP) assays were performed on a PTI spectrofluorometer equipped with automated polarizers, using a time base polarization method provided by the program Felix32. […] Experiments were performed in duplicate and the reported dimerization Kd values reflect the average of both experiments.

CXCL12WT [2] = target: T1, CXCL12WT; conditions: ΔG = −RT ln Kd @ 298 K; calculated from Veldkamp et al. (32); cited from earlier work
THP-1 cells = experiment: THP-1 chemotaxis (Transwell); format: cell-based; conditions: 3 h stimulation
Description: THP-1 chemotaxis. Chemotaxis experiments were performed using Tranwell ([…]; Costar) in 24-well format. […] THP-1 cells were washed twice and […] cells were added to the upper chamber. Plates were incubated for 3 h at 37° C., 5% CO2. Following incubation, Transwell membranes were removed and cells that migrated into the lower chamber were counted using a TC-10 Automated Cell Counter (BioRad) and hemocytometer. The chemotactic index was calculated as the difference in migrated cell number between those exposed to chemokine and the vehicle control.

NALM6 cells = experiment: NALM6 chemotaxis (Boyden chamber); format: cell-based; conditions: 90 min stimulation; relative to CXCL12WT
Description: NALM6 chemotaxis. NALM6 cells were grown in RPMI-1640 supplemented with 10% FBS, 100 U/mL penicillin-streptomycin, 2 mM glutamine, 50 μM […], non-essential amino acids, 1 mM Na-pyruvate and 25 mM HEPES buffer (pH 7.3). Chemotaxis assays were performed in triplicate in 48-well Boyden chambers (NeuroProbe), using 5 μm pore-sized polyvinylpyrrolidone-free polycarbonate membranes. […] Cells ([…] per well) resuspended in chemotaxis medium were added to the upper well and incubated for 90 min at 37° C. in 5% CO2 atmosphere. Cells were removed from the upper part of the membrane with a rubber policeman. Cells attached to the lower side of the membrane were fixed and stained as described. Migrated cells were counted in five randomly selected fields of 1000-fold magnification.
NALM6 chemotaxis. NALM6 cells were grown in RPMI-1640 supplemented with 10% FBS, 100 U/mL penicillin-streptomycin, 2 mM glutamine, 50 μM 2-mercaptoethanol, non-essential amino acids, 1 mM Na-pyruvate and 25 mM HEPES buffer (pH 7.3). Chemotaxis assays were performed in triplicate in 48-well Boyden chambers (NeuroProbe), using 5 μm pore-sized polyvinylpyrrolidone-free polycarbonate membranes. […] Migrated cells were counted in five randomly selected fields of 1000-fold magnification.

MiaPaCa2 cells = experiment: MiaPaCa2 chemotaxis (Transwell); format: cell-based; conditions: 6 h stimulation; relative to CXCL12WT
Description: MiaPaCa2 chemotaxis. Chemotactic migration of pancreatic cancer MiaPaCa2 cells was performed as previously described using Transwell plates coated with 15 ug/ml collagen. Briefly, MiaPaCa2 cells were serum starved for 2 hours, lifted using enzyme-free dissociation buffer, washed and then counted using a hemocytometer. 100,000 cells in 10 uL of serum free media were plated into the top chamber of each Transwell. The bottom chamber of each Transwell contained each stimulant in 500 uL serum free media. MiaPaCa2 cells were allowed to migrate for 6 hours, after which the cells remaining on the top of the chamber were swabbed out. Plates were then fixed in 4% paraformaldehyde and stained with DAPI. Migrated cells were visualized and counted by fluorescence microscopy, with 5 representative high-powered fields taken per well.

U-937 cells = experiment: Agarose microdroplet assay of U-937 migration; format: cell-based
Description: Agarose microdroplet assay. The agarose microdroplet assay was performed to determine U-937 cellular migration, as previously described. 0.5×10^6 cells/ml U-937 target cells were harvested and washed in HBSS. Cells were spun at 2,000 rpm and were transferred to a graduated 15 ml glass conical tube. The cell concentration was adjusted in agarose medium, prepared from 2% low melting temperature Seaplaque agarose and medium containing 15% FBS, using a 1:4 volume-to-volume dilution. A 1 μl agarose droplet containing 1-10^5 target cells was placed in the center of each well of a 96-well flat-bottom tissue culture plate, in triplicate, using a gastight 0.05 ml Hamilton syringe (Hamilton Company, Reno, Nev.). Droplets were allowed to harden at 4° C. for 20 min. 200 μl chilled test media was applied to each well. […] The plate was incubated for 18-24 h at 37° C. and 5% CO2. Following incubation, the radius of each droplet was determined and target cell migration was measured at four directional points 900 from one another, using an inverted light microscope equipped with a gridded eyepiece, at 40× total magnification. Percent inhibition of each sample was quantified. The plate was incubated for an additional 24 h to measure recovery, and viability was determined by trypan blue exclusion.
Agarose microdroplet assay. The agarose microdroplet assay was performed to determine U-937 cellular migration, as previously described {AdeCXCL121an, 1980 #1609}. 0.5×10^6 cells/ml U-937 target cells were harvested and washed in HBSS. Cells were spun at 2,000 rpm and were transferred to a graduated 15 ml glass conical tube. […] Following incubation, the radius of each droplet was determined and target cell migration was measured at four directional points 900 from one another, using an inverted light microscope equipped with a gridded eyepiece, at 40× total magnification. Percent inhibition of each sample was quantified. The plate was incubated for an additional 24 h to measure recovery, and viability was determined by trypan blue exclusion.

KG1a cells = experiment: Apoptosis assays in KG1a cells expressing CXCR4-YFP; format: cell-based, human; conditions: 100 ng/ml
Description: Apoptosis assays. KG1a (human acute myelogenous leukemia) cells were assayed for CXCL12-dependent apoptosis as previously described. Briefly, CXCR4 expression on KG1a cells was achieved via transient transfection with a plasmid encoding a CXCR4-YFP fluorescent fusion protein. […] Apoptosis was assayed by staining cells with APC-conjugated annexin V to detect cell-surface phosphatidyl serine (BD Biosciences) or Alexaflour-647-conjugated antibody to detect cleaved PARP (BD Biosciences), and the percentage of YFP+ cells undergoing apoptosis was determined by flow cytometry.

[3] = unsulfated vs sulfated Tyr7 peptide

| ΔG (CXCL12WT [1]) | ΔG (CXCL121) | ΔG (CXCL122) | Molecule | other results |
| --- | --- | --- | --- | --- |
| -15.6 kJ/mol | -15.9 kJ/mol | -21 kJ/mol | CSCC[C@H](NC(=O)[C@H](CO)NC(=O)[C@H](CC(=O)O)NC(=O)[C@H](Cc1ccc(OS(=O)(=O)O)cc1)NC(=O)[C@H](CC(=O)O)NC(=O)CNC(=O)[C@H](CO)NC(C)=O)C(N)=O [18SGDsYDSM24] (Ac-SGD[sY]DSM-NH2) | ΔGbind (CXCL121; pathway 1: binding to CXCL12 before dimerization, 298 K): −3.8 kcal mol^−; binding to CXCL122 relative to CXCL12WT or CXCL121 (CXCL122; fold stronger): 20 fold; ΔGbind (CXCL122; pathway 2: binding to dimerized CXCL12, 298 K): −5.0 kcal mol^−; binding to CXCL122 relative to the unsulfated variant (CXCL122; sulfated vs unsulfated Tyr21 peptide): four-fold stronger; increase of CXCL12 dimerization affinity (CXCL12WT dimerization; by sTyr21 sulfopeptide): eight-fold; coupling energy linking CXCL12 dimerization to sTyr21 pocket binding (CXCL12WT dimerization; first value): −1.2 kcal mol^−; coupling energy linking CXCL12 dimerization to sTyr21 pocket binding (CXCL12WT dimerization; second value): −1.0 kcal mol^− |
| – | -31.1 kJ/mol | -34.5 kJ/mol | CC[C@H](C)[C@H](NC(=O)CNC(=O)[C@H](CCC(=O)O)NC(=O)[C@H](CCSC)NC(=O)[C@H](CCSC)NC(=O)CN)C(=O)N[C@@H](CO)C(=O)N[C@H](C(=O)N[C@@H](Cc1ccc(O)cc1)C(=O)N[C@H](C(=O)N[C@@H](CO)C(=O)N[C@@H](CC(=O)O)C(=O)N[C@@H](CC(N)=O)C(=O)N[C@@H](Cc1ccc(O)cc1)C(=O)N[C@H](C(=O)N[C@@H](CCC(=O)O)C(=O)N[C@@H](CCC(=O)O)C(=O)N[C@@H](CCSC)C(=O)NCC(=O)N[C@@H](CO)C(=O)NCC(=O)N[C@@H](CC(=O)O)C(=O)N[C@@H](Cc1ccc(O)cc1)C(=O)N[C@@H](CC(=O)O)C(=O)N[C@@H](CO)C(=O)N[C@@H](CCSC)C(=O)N[C@@H](CCCCN)C(=O)N[C@@H](CCC(=O)O)C(=O)N1CCC[C@H]1C(=O)N[C@@H](C)C(=O)N[C@@H](Cc1ccccc1)C(=O)N[C@@H](CCCNC(=N)N)C(=O)N[C@@H](CCC(=O)O)C(=O)N[C@@H](CCC(=O)O)C(=O)N[C@@H](CC(N)=O)C(=O)N[C@@H](C)C(=O)N[C@@H](CC(N)=O)C(=O)N[C@@H](Cc1ccccc1)C(=O)N[C@@H](CC(N)=O)C(=O)N[C@@H](CCCCN)C(=O)O)[C@@H](C)O)[C@@H](C)O)[C@@H](C)CC [CXCR41-38] | ΔG (kcal mol^−1) (CXCL12WT [2]): −7.29* kcal mol^−1 |
| -15.5 kJ/mol | -16.9 kJ/mol | -19.2 kJ/mol | Ac-ISIYTSD-NH2 [4ISIYTSD10] | affinity for CXCL12WT relative to the sTyr7 sulfopeptide (CXCL12WT [1]; [3]): two-fold higher affinity; binding to CXCL121 relative to the sTyr7 sulfopeptide (CXCL121; [3]): roughly five-fold stronger |

More lines, now with the values behind:

| Molecule | ΔG (CXCL12WT [1]) | ΔG (CXCL121) | ΔG (CXCL122) | other results |
| --- | --- | --- | --- | --- |
| CC[C@H](C)[C@H](NC(C)=O)C(=O)N[C@@H](CO)C(=O)N[C@H](C(=O)N[C@@H](Cc1ccc(OS(=O)(=O)O)cc1)C(=O)N[C@H](C(=O)N[C@@H](CO)C(=O)N[C@@H](CC(=O)O)C(N)=O)[C@@H](C)O)[C@@H](C)CC [4ISIsYTSD10] (Ac-ISI[sY]TSD-NH2) | -13.5 kJ/mol | -12.6 kJ/mol | -19.5 kJ/mol | – |
| CC(=O)N[C@@H](CO)C(=O)N[C@@H](CC(=O)O)C(=O)N[C@@H](CC(N)=O)C(=O)N[C@@H](Cc1ccc(OS(=O)(=O)O)cc1)C(=O)N[C@H](C(=O)N[C@@H](CCC(=O)O)C(=O)N[C@@H](CCC(=O)O)C(N)=O)[C@@H](C)O [9SDNsYTEE15] (Ac-SDN[sY]TEE-NH2) | -17.1 kJ/mol | -15.6 kJ/mol | -20.4 kJ/mol | – |
| Ac-SDNYTEE-NH2 [9SDNYTEE15] | -15.3 kJ/mol | -14.6 kJ/mol | -19.8 kJ/mol | – |
| Ac-SGDYDSM-NH2 [18SGDYDSM24] | -14.6 kJ/mol | -16.1 kJ/mol | -17.6 kJ/mol | – |
| CXCL121: constitutively monomeric CXCL12 variant with L55C and I58C substitutions (SEQ ID NO:2) | – | – | – | extension of the effective chemotactic dose (THP-1 cells): at least 10 fold; extension of the effective chemotactic dose (NALM6 cells): at least 10 fold; extension of the effective chemotactic dose (MiaPaCa2 cells): at least 10 fold; effect on U-937 cell migration (U-937 cells; all tested concentrations, 18-24 h, serum-containing media): significantly enhanced migration; concentration of peak migration enhancement (U-937 cells; bell-shaped dose response): 25 nM; cleavage of PARP (KG1a cells): significantly greater than CXCL122 |
